Reference: PubChem BioAssay (NCI)
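Results reflect a 48-hour exposure of cells in 96-well plates to compound at five concentrations. TGI: concentration producing complete growth inhibition.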 *1 amine or outer side, *2 acyl side, *3 side chain or, on linkers, in order; H or OH if unused. Where a SMILES comes first, the peptide text is derived from it. Bridges are numbered along the chain shown (N, C = ends). Roman numbers before positions name the chains, in order. [ ]: non-standard residue; d: D form. Actinocin(9to1) = Cc1c2oc3c(C)ccc(C(=O)[*:1])c3nc-2c(C(=O)[*:2])c(N)c1=O; NMeV = CN[CH](C(=O)O)C(C)C; Sar = CNCC(=O)O

Tests used:
Assay in all cases: growth of human tumour cells (NCI), 48 h
[1] = tested on: OVCAR-4 ovarian
[2] = tested on: U251 CNS
[3] = tested on: UACC-257 melanoma
[4] = tested on: NCI-H226 lung
[5] = tested on: SK-MEL-28 melanoma
[6] = tested on: SF-268 CNS
[7] = tested on: MDA-N
[8] = tested on: EKVX NSCLC
[9] = tested on: HCT-116 colon
[10] = tested on: MDA-MB-231 breast
[11] = tested on: CAKI-1 renal

| Compound | TGI [1] [µM] | TGI [2] [µM] | TGI [3] [µM] | TGI [4] [µM] | TGI [5] [µM] | TGI [6] [µM] | TGI [7] [µM] | TGI [8] [µM] | TGI [9] [µM] | TGI [10] [µM] | TGI [11] [µM] |
| --- | --- | --- | --- | --- | --- | --- | --- | --- | --- | --- | --- |
| COC(=O)CC(C)(NS(=O)c1ccc(C)cc1)c1ccccc1 (stereo unspecified) | > 100 | > 100 | > 100 | > 100 | > 100 | > 100 | > 100 | > 100 | > 100 | > 100 |  |
| C=C1c2nc3ccccc3n2C=C(c2ccc(OC)cc2)N1c1ccc(OC)cc1 | > 100 | 28.4 | > 100 | 43.1 |  |  | > 100 | > 100 | 74.4 | 75.9 | 19.3 |
| Cc1ccc(Nc2nc(NNC(=O)Cc3ccccc3)nc(NNC(=O)c3ccncc3)n2)cc1 | > 10 | > 10 | > 10 |  | > 10 | > 10 | > 10 | > 10 |  | > 10 | > 10 |
| Cc1ccc2nc(-c3ccccc3)cc(=O)n2c1 | > 100 | > 100 |  | > 100 | > 100 | > 100 | > 100 | > 100 | > 100 | > 100 |  |
| Cc1cn(C2OC(CO[Si](C)(C)C(C)(C)C)C(N(C)O[Si](C)(C)C(C)(C)C)C2[Se]c2ccccc2)c(=O)[nH]c1=O (stereo unspecified) | 8.58 | 24.5 |  | 21.7 | 22.2 | 10.2 | > 100 |  | 19.9 | 43.8 |  |
| Cc1nn(C(=O)Cc2ccccc2)c2c1C(c1ccccc1)SC(N)=N2 (stereo unspecified) |  |  | > 100 | > 100 | > 100 | > 100 | > 100 | > 100 | > 100 | > 100 | > 100 |
| C=C1C(=O)O[C@@H]2/C=C(C)/C=C\[C@@H]3O[C@@]3(C)C[C@@H](O)C12 (stereo partly specified) | 38.2 | 34.6 | 28.1 | 29.7 | 35.8 | 84.7 | > 100 | 20.2 | 20.6 |  | 21 |
| CCOC(=O)c1cc(-c2ccc(OC)cc2)c([N+](=O)[O-])n1C | > 10 | > 10 | > 10 | > 10 |  | > 10 | > 10 | > 10 | > 10 |  |  |
| COc1cc(S(=O)(=O)Nc2ccc(-c3csc(N4C(=O)CSC4c4cccc(Oc5ccccc5)c4)n3)cc2)ccc1Cl (stereo unspecified) | > 100 |  |  | > 100 | 87.7 | > 100 | 75.8 | > 100 | > 100 |  | > 100 |
| O=C1c2cccc3cc([N+](=O)[O-])cc(c23)C(=O)N1Nc1ccc([N+](=O)[O-])cc1[N+](=O)[O-] | > 46.4 | 29.3 | 24.1 | > 31.6 | 18 | > 31.6 |  | > 46.4 | 34.3 | 42.9 | > 31.6 |
| CSC(=O)c1sc(SC)[n+](-c2ccccc2)c1O | 24.9 | 30.1 |  | 52.9 | 34.9 | 31.2 | 37.1 |  | 32.6 | 39 |  |
| N=c1oc2ccccc2cc1C(=O)NC12CC3CC(CC(C3)C1)C2 | > 86.8 | 43.8 | 70.9 | > 90.3 | > 100 | > 100 | > 100 | > 82.8 | 71.1 | 47.7 |  |
| O=S(=O)(O)c1cc(N=Nc2c(O)ccc3ccccc23)cc2c(S(=O)(=O)O)cccc12 | > 100 | > 100 | > 100 | > 100 | > 100 | > 100 |  | > 100 | > 100 | > 100 | > 100 |
| CC1=NN(c2nc(N)nc(COc3ccc(N)cc3)n2)C(C)(C)C1 | > 100 | > 100 | > 100 | > 100 | > 100 | > 100 |  | > 100 | > 100 | > 100 | > 100 |
| Cc1cc(OC(=O)Nc2cccc3ccccc23)c(C(C)C)cc1C(=S)Nc1ccccc1 | 35 | 35.4 | 50.5 |  | 35.3 | 77.6 | 33.3 | 61.6 | 32.4 |  | 54.7 |
| COc1cc2c(/C=C3/C(=O)Nc4cccc(Cl)c43)c(Cl)[nH]c2cc1C | 3.48 | 3.99 | 10.2 | 7.59 | 4.27 | 19.8 |  |  | 3.19 | 3.2 | 7.3 |

| Compound | TGI [1] [µM] | TGI [2] [µM] | TGI [3] [µM] | TGI [4] [µM] | TGI [5] [µM] | TGI [6] [µM] | TGI [7] [µM] | TGI [8] [µM] | TGI [9] [µM] | TGI [10] [µM] | TGI [11] [µM] |
| --- | --- | --- | --- | --- | --- | --- | --- | --- | --- | --- | --- |
| Cc1[nH]c(=O)nc2sc(=NC3CCCCC3)n(C3CCCCC3)c(=O)c12 | > 100 | > 100 | > 100 | > 100 | > 100 |  | > 100 | > 100 | > 100 | > 100 | > 100 |
| COC(=O)c1ccc(Cc2cc(Cc3ccc(C(=O)OC)cc3)cc(Cc3ccc(C(=O)OC)cc3)c2)cc1 | > 25 | > 25 | > 25 | > 25 | > 25 | > 25 | > 25 | > 25 | > 25 | > 25 |  |
| COc1cc(OCCN(C)C)c2[nH]c(C(=O)N3CC(CCl)c4ccc(N)cc43)cc2c1 (stereo unspecified) | 1.32 | 3.32 | 0.329 | 2.58 |  | 0.908 |  | 1.37 | 1.64 | 9.37 |  |
| CCOC(=O)/C(C#N)=C/c1coc2cc(C)cc(C)c2c1=O |  | > 100 | > 100 | > 100 | > 100 | > 100 | > 100 | > 100 | > 100 | > 100 | > 100 |
| C[C@]12[C@@H]3CC[C@H]1[C@@H](O)C(=O)N2CC3 | > 100 | > 100 | > 100 |  | > 100 | > 100 | > 100 | > 100 | > 100 | > 100 | > 100 |
| COc1ccc(NC(=S)c2ccc(CN3CCCCC3)s2)cc1 | > 100 | 34.8 | 35.6 |  | 33.8 | > 100 | 36.7 | 41.3 | 35.6 |  | 77.3 |
| Cc1ccc(S[C@@H](C)[C@@](O)(CF)CN(Cc2ccccc2)C(=O)C(F)(F)F)cc1 | 34.2 | 35.3 | 56.8 |  | > 100 | > 100 | 62.7 | 64.9 | 27.3 | 54.3 | 99.7 |
| CON(C)C(=O)C(C)N(Cc1ccccc1)Cc1ccccc1 (stereo unspecified) |  | > 100 | > 100 | > 100 | > 100 | > 100 | > 100 | > 100 | > 100 |  |  |
| O=C1/C(=C/c2ccco2)NC(=S)N1CN1CCCCC1 | 86 | > 100 |  | > 100 | > 100 | > 100 | > 100 | > 100 | > 100 | > 100 |  |
| Nc1nc(Cl)cc(OCC2(CO)CC=CC2)n1 | > 100 | > 100 | > 100 | > 100 | > 100 | > 100 | > 100 | > 100 | > 100 |  |  |
| COc1ccc(S(=O)(=O)n2c3c(c4ccccc42)[C@@H]2[C@@H](CCCN2C(=O)CS(=O)c2ccc(C)cc2)[C@H](Cl)C3)cc1 (stereo partly specified) |  | > 100 | > 100 | > 100 | > 100 | > 100 | > 100 | > 100 | > 100 | > 100 | > 100 |
| CCOC(=O)CCCSCCCC(=O)CCCSCCCC(=O)OCC | > 100 | > 100 | > 100 |  | > 100 | > 100 | > 100 | > 100 | > 100 | > 100 |  |
| Cc1c2oc3c(C)ccc(C(=O)NC4C(=O)NC(C(C)C)C(=O)N5CCCC5C(=O)N(C)CC(=O)N(C)C(C(C)C)C(=O)OC4C)c3nc-2c(C(=O)NC2C(=O)NC(C(C)C)C(=O)N3CCCC3C(=O)N(C)CC(=O)N(C)C(C(C)C)C(=O)OC2C)c(N)c1=O (stereo unspecified) (I: TVP[Sar][NMeV] / II: TVP[Sar][NMeV]; ester I:1-I:C, II:1-II:C; linker I:N-II:N via Actinocin(9to1); configuration not given here) | 0.00187 |  | 0.0231 |  | 0.0125 | 0.0269 | 0.0094 | > 0.779 | > 1 | > 0.231 | > 0.316 |
| CCOC(=O)C(=[N+]=[N-])C(=O)CN1C(=O)c2ccccc2C1=O | > 100 | > 100 | > 100 |  | > 100 | > 100 | > 100 | > 100 | > 100 | > 100 | > 100 |
| COc1cccc(-c2cc(=O)c3cc(N4CCCCC4)ccc3[nH]2)c1 | > 57.9 | > 85.9 | > 100 | 0.0652 | > 100 | > 100 |  | > 100 |  | > 100 | > 100 |
